Measured values as given in patent US8025905B2, “Method for reducing allergencity in indoor spaces” (priority 2001, dated 2011).

B1: subtilisin savinase: subtilisin-type protease derived from Bacillus lentus (protein, UniProt P29600 1-269, looked up)
Subtilisin Savinase: AQSVPWGISRVQAPAAHNRGLTGSGVKVAVLDTGISTHPDLNIRGGASFVPGEPSTQDGNGHGTHVAGTIAALNNSIGVLGVAPSAELYAVKVLGASGSGSVSSIAQGLEWAGNNGMHVANLSLGSPSPSATLEQAVNSATSRGVLVVAASGNSGAGSISYPARYANAMAVGATDQNNNRASFSQYGAGLDIVAPGVNVQSTYPGSTYASLNGTSMATPHVAGAAALVKQKNPSWSNVQIRNHLKNTATSLGSTNLYGSGLVNAEAATR
B2: subtilisin BPN: subtilisin-type protease derived from B. amyloliquefaciens (protein, UniProt P00782 108-382, looked up)
Subtilisin BPN': AQSVPYGVSQIKAPALHSQGYTGSNVKVAVIDSGIDSSHPDLKVAGGASMVPSETNPFQDNNSHGTHVAGTVAALNNSIGVLGVAPSASLYAVKVLGADGSGQYSWIINGIEWAIANNMDVINMSLGGPSGSAALKAAVDKAVASGVVVVAAAGNEGTSGSSSTVGYPGKYPSVIAVGAVDSSNQRASFSSVGPELDVMAPGVSIQSTLPGNKYGAYNGTSMASPHVAGAAALILSKHPNWTNTQVRSSLENTTTKLGDSFYYGKGLINVQAAAQ

Experiments:
house dust mites = details: levels of only 0.1% permethrin; cited from earlier work
[1] = ointment containing 5% permethrin applied for 12 hours, then washed off; cited from earlier work
allergenic polypeptides = experiment: Enzymatic degradation of allergens by proteases; type: biochemical
From the text: Any enzyme that will cleave the allergenic polypeptides to destroy the epitopes recognized by the asthmatic's sensitized immune system is suitable, but proteases that are less specific (i.e., hydrolyze peptide bonds between a variety of different amino acid residues, rather than only between specific residues) are preferred. […] Similar non-specific proteases are suitable for use in this invention, as well as Bacillus neutral proteases and the like. Genetically engineered enzymes are within the contemplation of this invention, so long as the resulting enzyme can be shown to destroy allergenic epitopes of the primary allergens, as shown by ELISA tests (see, e.g., U.S. Pat. No. 5,314,991). Suitable assays may be analogous to the tests for active T cell epitopes of Der pI, Der pII, Der f1, and Der fII disclosed in U.S. Pat. No. 5,968,526 (incorporated herein by reference).

Molecule | kill of house dust mites in carpet (house dust mites) [%] | permethrin absorbed through the skin [1] | effectiveness in cleaving allergenic polypeptides (allergenic polypeptides)
CC1(C)C(C=C(Cl)Cl)C1C(=O)OCc1cccc(Oc2ccccc2)c1 (stereo not shown) [Permethrin] | 100 | Less than 2% | –
B1 | – | – | effective
B2 | – | – | effective
